Experiments:
Type in all cases: cell-based
[1] = test system: AMPK; assay: AMPK activation: western blot of AMPK and p-AMPK protein expression in liver cells; conditions: HepG2 liver cells; AICAR 1 mM; chito-oligosaccharide 100, 500 ppm; western blot optical density
Experimental: (§1) Chito-oligosaccharides with a molecular weight of 2,000 and 9,000 (100, 500 ppm) and liver cells (HepG2) treated by AICAR (1 mM) were added to a lysis buffer (50 mM Tris-HCl, pH 7.4, 150 mM NaCl, 0.1% SDS, 1.0% Triton X-100. 0.25% Deoxycholate, 1 mM EDTA, 1 mM PMSF) to disrupt the cells. The homogenate was centrifuged at 12,000 rpm for 15 minutes and a layer of protein was obtained. The degree of expression of ACC and p-ACC proteins was determined by a western blotting. 50 μg of protein was loaded on SDS-polyacrylamide gel, electrophoresis was carried out, and the gel was transferred to a nitrocellulose membrane. The membrane was reacted with blocking solution (5% skim milk, 10 mM Tris, pH7.5, 10 mM NaCl, 0.1% Tween 20) for 1 hour to remove nonspecific bindings, the primary antibodies to AMPK and p-AMPK proteins were added and it was maintained overnight at 4° C. Thereafter, it was washed with a blocking solution for 10 minutes three times, the secondary antibodies were added thereto, and they were reacted for 1 hour and washed as described above. After adding ECL solution, the membrane was exposed to X-ray film and the amount of protein was measured. The change in the amount of protein was calculated by an optical density with an image analyzer.

[2] = test system: ACC; assay: ACC activation: western blot of ACC and p-ACC protein expression in liver cells; conditions: HepG2 liver cells
Experimental: as §1
The expressions of ACC and p-ACC proteins were measured by a Western blotting as described above.

[3] = test system: liver cells (HepG2); assay: Fatty acid oxidation in liver cells ([1-14C]-palmitate); conditions: 6 hours culture, positive control
Experimental: To determine the degree of fatty acid oxidation in liver cells, HepG2 cells were seeded on a 96-well plate. After stabilizing the seeded plate, AICAR and chito-oligosaccharide were added in a concentration of 100 and 500 ppm. After culturing for 6 hours, to the cells was added […] of assay buffer (20 mM HEPES, 25 mM NaHCO3, 1.2 mM KH2PO4, 3 mM glucose, 114 mM NaCl, 4.7 mM KCl, 1.2 mM MgSO4, 2.5 mM CaCl2, 1% ultra fatty acid-free BSA) and they are reacted for 30 minutes. Then, [1-^14C]-palmitate (3.4 μCi; 1.0 μCi/μmole) was incorporated thereto and labeling was carried out for 2 hours. 5% perchloric acid was added to stop the reaction and the amount of radiation was measured.

[4] = test system: liver cells (HepG2); assay: Production of ATP in liver cells (ATP assay kit, luminescence); conditions: 5 to 500 ppm, 24 hours culture
Experimental: The production of ATP according to AMPK activation was measured by ATP assay kit. HepG2 cells were seeded on a 96-well plate and the seeded plate was stabilized and, thereafter, AICAR and chito-oligosaccharide were added in a concentration of 5 to 500 ppm. After culturing for 24 hours, the reagent prepared by mixing a substrate and a buffer was added to each well and they were reacted for 30 minutes at a room temperature. Cells were disrupted by mixing them in an orbital shaker and, after stabilizing them for 10 minutes, a luminescence was measured.

SMILES: NC(=O)c1ncn([C@@H]2O[C@H](CO)[C@@H](O)[C@H]2O)c1N [AICAR, AICA-riboside]
- expression of p-AMPK protein [1]: increased twice or more
- amount of p-ACC protein expression ([2]; AICAR 1 mM, chito-oligosaccharide concentration not specified): up to twice
- total amount of ACC protein expression ([2]; western blot): not changed
- increased oxidation of fatty acid [3]: about 35%
- production of ATP [4]: up to twice

From US20100120711A1, “AMPK POTENTIATOR CONTAINING CHITO-OLIGOSACCHARIDE” (AMOREPACIFIC CORPORATION, priority 2006, published 2010)
